# According to patent US20060088897A1, “Modulators” (priority 2003, published 2006):
# Assays:
# Format in all cases: cell-based
# N1E-115 cells [1] = experiment: Cell guidance assay at Laminin/CSPG boundary (axonal guidance)
# Method: Effect of PAK peptides on neurite morphology. Cells are exposed to control peptide, αP 1*, αP2, βP2, or γP2 and neurite morphology assessed. (B) Cells are plated on coverslips that been treated to create a Laminin/CSGP boundary. After 6 h cells are examined for their ability to project neurites that crossed the substrate boundary. Cells exposed to bioporter coated peptides, (a) αP2, (b) βP2, and (c) γP2. […] Results are means+/−SEM (n=161-263). (C) Cells are exposed to peptides and after 6 h are scored for their ability to cross boundary from Laminin to CSPG.
# The coverslips are washed and sterilised and then coated in one of the following ways.
# A second layer of laminin is applied as a drop mixed with 1 μg/ml TRITC label. Coverslips are left for 1 hour at RT and then rinsed twice with sterile water before allowing to dry before use. (iii) Attractive/repulsive boundary. Slides are coated with CSPG 5 μg/ml for 1 hour at 37° C. in a humid chamber then rinsed once in sterile H2O and allowed to air dry before the drop of laminin at 10 μg/ml is applied to the centre of the coverslip and left for 1 hour at RT before rinsing twice in sterile water and allowing to dry before use. This coating is also done in reverse with the laminin applied first and then the tenascin or the CSPG applied second.
# The cells are then seeded onto the prepared coverslips at 2×10^5 cells in 1 ml in a 35 mm petri dish, in DMEM, 10% FCS, and 1% AB/AM. Cells are allowed to attach overnight. The media is then removed and the coverslips rinsed in serum free media and incubated overnight (18 h) in serum free media. After the starvation the cells are fixed and stained to show the morphology of the cells at the boundary. Only neurites expressing neurofilamant are scored.
# After 5 minutes, the cells are washed once with serum free DMEM media and then 1 ml of serum free DMEM is added to the tube containing the peptide and BioPorter mix it is vortexed gently before being added to the cells. The cells are incubated for 4 hours at 37° C. After the 4 hour incubation the cells are then incubated for a further 2 hours in 5% FCS DMEM or for cells undergoing a substrate guidance assay the 2 hour incubation is in serum free DMEM. The cells are fixed and stained.
# Neurofilament positive neurites are scored for how they respond to Laminin/CSPG boundary. […] However, neurites do have distinct morphologies (FIG. 9A). Thus α, β and γ PAK are not essential for neurite outgrowth.
# N1E-115 cells [2] = experiment: Microinjection of peptides into partially serum starved N1E-115 cells, phalloidin staining and confocal microscopy of cell morphology; conditions: FIG. 8A
# Method: (§1) Cells are starved for 2-3 h and then either injected with peptides (10 μg/ml) or exposed to peptides with bioporter reagent. Cells are incubated for a further 2 h before being stained with phalloiden and examined by confocal microscopy (as described in the materials and methods section). (A) The upper cells is injected with αP1 (a), or all cells injected with αP1*(b), or exposed to αP2 with bioporter reagent (c). […] Results are expressed as means+/−SEM of 3 experiments (n=333-426 cells). […] (D) Cells are exposed to bioporter reagent with αP2 and after 6 h double stained with αPAK and vinculin antibodies; (a) Vinculin/αPAK, (b) Vinculin and (c) αPAK. Bar=10 μM. Control bars are with IgG with bioporter/microinjection.
# (§2) Cells are starved for 2-3 h and then injected with peptides. Cells are then incubated for 2 h before being stained with phalloiden and examined by confocal microscopy (as described in the materials and methods section). (A) Cells are injected with IgG (a), with αP2 (b), with βP2 (c) and γP2 (d). Bar=10 μM. (B) Cells are exposed to bioporter with peptides and presence of neurites, pronounced filopodia and pronounced lamellipodia/ruffles scored (definitions as in FIG. 7). (C) Cells are either exposed to bioporter reagent coated peptides (αP2 and βP2) and then IGF or serum starvation used to activate cells. For γP2 cells are injected with peptide and stimulated with serum. Filopodia and lamellipodia are scored by using time-lapse phase contrast microscopy. +/−SEM of 3 experiments (n=900). Control peptide is taken from the kinase domain and common to the three PAK isoforms.
# Cells are plated out at 1.0×10^5 cells in 1 ml in a 35 mm dish containing 2 laminin coated coverslips. The coverslips are first marked with a grid using a fine permanent marker and then coated with laminin and incubated overnight in DMEM, 10% FCS, 1% AB/AM. The media is replaced with serum free media (DMEM, 1% AB/AM) and the cells starved for 1 hour so that they flattened and are easier to inject. The peptides are injected at 10 μg/ml in PBS, Rat IgG at 1 mg/ml is added to act as a marker for injected cells.
# The cells are injected using an Eppendorf microinjection apparatus on an Axioplan inverted microscope equipped with a heated stage maintained at 37° C. and a 5% CO2 chamber. Humidity is maintained by a dish of sterile water inside the CO2 chamber. Cells in a grid square are injected and positive injection checked visually at the time of injection or after fixation and staining for the injected marker. After injection the cells are returned to the incubator for a further 2 hours. Giving a total time without serum of 4 hours.
# The only difference between these two peptides being that the latter peptide is phosphorylated on serine and this modification prevents it from binding Nck (Zhao et al., 1998). To investigate the effects of peptides we first serum starve the cells for 2-4 h to activate Cdc42Hs and Rac.
# N1E-115 cells [3] = experiment: Peptide delivery with BioPorter reagent, scoring of neurites, filopodia and lamellipodia/ruffles
# Method: as §1, §2
# BioPorter regent is supplied as a dried powder and must be dissolved in a solvent before use. To each tube of BioPorter reagent 250 μl of methanol is added and the powder is re-suspended by vortexing for 10-20 seconds. 10 μl of the mix is transferred into new eppendorf tubes; the methanol is allowed to evaporate for 2 hours in a laminar flow hood. The dried reagent is stored at −20° C.
# Cells are plated out at 1.5×10^5 cells in a 35 mm dish containing 2 laminin-coated coverslips and incubated overnight. […]
# N1E-115 cells [4] = experiment: Double staining of peptide treated cells with vinculin and αPAK antibodies (focal complexes); conditions: FIG. 7D
# Method: as §1
# For in situ analysis primary/secondary antibodies are used at 1:100 dilution. PAK antibodies, all from Santa-Cruz, are as follows; αPAK N-20 (raised to rat amino acids 2-21), αPAK C-19 (raised to rat amino acids 525-544), βPAK (raised to mouse amino acids 2-20), γPAK (raised to human amino acids 2-20) and γPAK (raised to human amino acids 2-20). Vinculin, paxillin, phosphotyrosine are from Sigma. Integrin antibodies β1-integrin and α6-integrin a gift from A. Sonneberg, NCI, Netherlands. Bac1 cells are seeded onto coverslips and then grown for 24 h before the media is replaced with either CSF free, serum free, or CSF/serum free. […]
# N1E-115 cells [5] = experiment: Axonal guidance towards IGF (preliminary experiments); conditions: unpublished data
# From the text: In preliminary experiments we have also examined the effect of the PAK peptides on axonal guidance towards IGF in N1E-115 cells.
sequence,measurement,setting,value
SNNGLDIQDKPPAPPMRNTS [αP2],ability to detect the Laminin/CSPG boundary,N1E-115 cells [1]; FIG. 9C,not affected
same,neurite morphology,"N1E-115 cells [1]; serum starved cells, FIG. 9A",indistinguishable from control cells
same,"effect on formation of lamellipodia, filopodia or neurites concluded from microinjection",N1E-115 cells [2],synergise with both Cdc42 and Rac to produce neurites
same,neurite phenotype compared with αP1,N1E-115 cells [3]; FIG. 7B,neurites that are thinner and longer
same,percentage of cells possessing neurites compared with αP1,N1E-115 cells [3]; FIG. 7B,higher
same,optimal peptide concentration for the phenotypic changes,"N1E-115 cells [3]; dosage dependent effect, FIG. 7C",10 µg/mL
same,αPAK containing focal complexes (FC's) after peptide treatment,N1E-115 cells [4],leads to loss of FC's
same,effect on axonal guidance towards IGF,N1E-115 cells [5],do not affect guidance
